We go through 14 molecules from patent US11364248B2 (AMGEN INC., priority 2017, dated 2022).

For one experiment, the target named is Mcl-1/Bim interaction (Homo sapiens (Human), UniProt Q07820). Nature of the experiment: Cell Free Mcl-1: Bim Affinity Assay (Mcl-1 HTRF). The format is binding. Conditions: TR-FRET, recombinant human Mcl-1(171-327), biotin-Bim(51-76); read-out: Mel-1 HTRF IC50. The gist of the method:
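IC50 values came from duplicate four-parameter fits of the 665/620 nm TR-FRET ratio, read after overnight incubation with Eu anti-6×His and streptavidin-Xlent detection reagents. Beforehand, serially diluted compounds sat 60 min with Mcl-1 residues 171-327 (0.1 nM) and biotinylated Bim 51-76 peptide (0.05 nM), pH 7.5 Hepes/NaCl/DTT buffer.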
In general terms: Time-resolved FRET reads energy transfer from a long-lived donor to a nearby acceptor.

The subject of a further experiment is OPM-2. Kind of experiment: Cell Viability Assay (OPM-2 10 FBS). The format is cell-based, human. Conditions: OPM-2 cells, CellTiter-Glo, read-out: OPM-2 10% FBS IC50 IP. The gist of the method:
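Compounds, serially diluted, were left on OPM-2 cells (3000 cells/well, 10% FBS RPMI 1640) for 16 h at 37° C. under 5% CO2.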
For orientation: In ATP-based viability assays light output follows the ATP content of the culture.

Structures are written as SMILES. Like-named read-outs stand apart in the source and are kept apart here.

The IC50 is the concentration that gives 50% inhibition.

Chain of Mcl-1/Bim interaction (Q07820 171-327): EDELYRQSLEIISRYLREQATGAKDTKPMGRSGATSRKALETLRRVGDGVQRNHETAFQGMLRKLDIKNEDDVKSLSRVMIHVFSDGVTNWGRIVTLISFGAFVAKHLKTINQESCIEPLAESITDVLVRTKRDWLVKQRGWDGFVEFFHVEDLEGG

With `CC(=O)N1C[C@@H]2O[C@@H]([C@H]3CCC[C@H](C)[C@@H](C)S(=O)(=O)NC(=O)c4ccc5c(c4)N(C[C@@H]4CC[C@H]43)C[C@@]3(CCCc4cc(Cl)ccc43)CO5)O[C@@H]2C1` [Example 38, (1S,3′R,6′R,7′S,11′S,12′R)-7′-((2r,3aR,6aS)-5-acetyltetrahydro-3aH-[1,3]dioxolo[4,5-c]pyrrol-2-yl)-6-chloro-11′,12′-dimethyl-3,4-dihydro-2H,15′H-spiro[naphthalene-1,22′-[20]oxa[13]thia[1,14]diazatetracyclo [14.7.2.0~3,6~.0~19,24~]pentacosa[16,18,24]trien]-15′-one 13′,13′-dioxide], the IC50 was 0.537 nM on Mcl-1/Bim interaction and 819 nM in the experiment with OPM-2 (16 h).

On to `C[C@@H]1[C@@H](C)CCC[C@H]([C@H]2OC[C@](N)(CO)CO2)[C@@H]2CC[C@H]2CN2C[C@@]3(CCCc4cc(Cl)ccc43)COc3ccc(cc32)C(=O)NS1(=O)=O` [Example 40, (1S,3′R,6′R,7′S,11′S,12′R)-7′-(cis-5-amino-5-(hydroxymethyl)-1,3-dioxan-2-yl)-6-chloro-11′,12′-dimethyl-3,4-dihydro-2H,15′H-spiro[naphthalene-1,22′-[20]oxa[13]thia[1,14]diazatetracyclo [14.7.2.0~3,6~.0~19,24~]pentacosa[16,18,24]trien]-15′-one 13′,13′-dioxide], for which the IC50 at Mcl-1/Bim interaction came to 0.577 nM; in the experiment with OPM-2 (16 h), 1560 nM.

On to `CC(=O)N(C)[C@H]1CO[C@@H]([C@H]2CCC[C@H](C)[C@@H](C)S(=O)(=O)NC(=O)c3ccc4c(c3)N(C[C@@H]3CC[C@H]32)C[C@@]2(CCCc3cc(Cl)ccc32)CO4)OC1` [Example 47, N-(cis-2-((1S,3′R,6′R,7′S,11′S,12′R)-6-chloro-11′,12′-dimethyl-13′,13′-dioxido-15′-oxo-3,4-dihydro-2H-spiro[naphthalene-1,22′-[20]oxa[13]thia[1,14]diazatetracyclo [14.7.2.0~3,6~.0~19,24~]pentacosa[16,18,24]trien]-7′-yl)-1,3-dioxan-5-yl)-N-methylacetamide], for which the IC50 at Mcl-1/Bim interaction was 0.568 nM; in the experiment with OPM-2 (Homo sapiens, OPM-2, 16 h), 545 nM.

With `CN[C@H]1CO[C@H]([C@H]2CCC[C@H](C)[C@@H](C)S(=O)(=O)NC(=O)c3ccc4c(c3)N(C[C@@H]3CC[C@H]32)C[C@@]2(CCCc3cc(Cl)ccc32)CO4)OC1` [Example 48, (1S,3′R,6′R,7′S,11′S,12′R)-6-chloro-11′,12′-dimethyl-7′-(trans-5-(methylamino)-1,3-dioxan-2-yl)-3,4-dihydro-2H,15′H-spiro[naphthalene-1,22′-[20]oxa[13]thia[1,14]diazatetracyclo [14.7.2.0~3,6~.0~19,24~]pentacosa[16,18,24]trien]-15′-one 13′,13′-dioxide], the values for the half-inhibitory concentration (IC50) on Mcl-1/Bim interaction and in the experiment with OPM-2 (16 h) were 0.59 nM and 184 nM, respectively.

Consider `CN[C@H]1CO[C@H]([C@H]2CCC[C@H](C)[C@@H](C)S(=O)(=O)NC(=O)c3ccc4c(c3)N(C[C@@H]3CC[C@H]32)C[C@@]2(CCCc3cc(Cl)ccc32)CO4)OC1` [Example 49, (1S,3′R,6′R,7′S,11′S,12′R)-6-chloro-11′,12′-dimethyl-7′-(trans-5-(methylamino)-1,3-dioxan-2-yl)-3,4-dihydro-2H,15′H-spiro[naphthalene-1,22′-[20]oxa[13]thia[1,14]diazatetracyclo [14.7.2.0~3,6~.0~19,24~]pentacosa[16,18,24]trien]-15′-one 13′,13′-dioxide], for which the IC50 at Mcl-1/Bim interaction was determined as 1.52 nM; with OPM-2 (16 h), 966 nM.

In the case of `C[C@@H]1[C@@H](C)CCC[C@H]([C@H]2OC[C@@H](N3CC4(COC4)C3)CO2)[C@@H]2CC[C@H]2CN2C[C@@]3(CCCc4cc(Cl)ccc43)COc3ccc(cc32)C(=O)NS1(=O)=O` [Example 60, (1S,3′R,6′R,7′S,11′S,12′R)-6-chloro-11′,12′-dimethyl-7′-(cis-5-(2-oxa-6-azaspiro[3.3]hept-6-yl)-1,3-dioxan-2-yl)-3,4-dihydro-2H,15′H-spiro[naphthalene-1,22′-[20]oxa[13]thia[1,14]diazatetracyclo [14.7.2.0~3,6~.0~19,24~]pentacosa[16,18,24]trien]-15′-one 13′,13′-dioxide], the 50% inhibitory concentration (IC50) on Mcl-1/Bim interaction was determined as 0.897 nM; in the experiment on OPM-2 (Homo sapiens, OPM-2, 16 h) it was 610 nM.

On to `C[C@@H]1[C@@H](C)CCC[C@](C)([C@H]2OC[C@@H](N(C)C)CO2)[C@@H]2CC[C@H]2CN2C[C@@]3(CCCc4cc(Cl)ccc43)COc3ccc(cc32)C(=O)NS1(=O)=O` [Example 65, (1S,3′R,6′R,7′S,11′S,12′R)-6-chloro-7′-(cis-5-(dimethylamino)-1,3-dioxan-2-yl)-7′,11′,12′-trimethyl-3,4-dihydro-2H,15′H-spiro[naphthalene-1,22′-[20]oxa[13]thia[1,14]diazatetracyclo [14.7.2.0~3,6~.0~19,24~]pentacosa[16,18,24]trien]-15′-one 13′,13′-dioxide], for which the IC50 at Mcl-1/Bim interaction was 5.02 nM; in the experiment on OPM-2 (Homo sapiens, OPM-2, 16 h), 1560 nM.

Regarding `CCN(C)[C@H]1CO[C@@H]([C@H]2CCC[C@H](C)[C@@H](C)S(=O)(=O)NC(=O)c3ccc4c(c3)N(C[C@@H]3CC[C@H]32)C[C@@]2(CCCc3cc(Cl)ccc32)CO4)OC1` [Example 66, (1S,3′R,6′R,7′S,11′S,12′R)-6-chloro-7′-(cis-5-(ethyl(methyl)amino)-1,3-dioxan-2-yl)-11′,12′-dimethyl-3,4-dihydro-2H,15′H-spiro[naphthalene-1,22′-[20]oxa[13]thia[1,14]diazatetracyclo [14.7.2.0~3,6~.0~19,24~]pentacosa[16,18,24]trien]-15′-one 13′,13′-dioxide], the concentration for half-maximal inhibition (IC50) on Mcl-1/Bim interaction came out at 1.29 nM; in the experiment with OPM-2 (Homo sapiens, OPM-2, 16 h), 326 nM.

Consider `C[C@@H]1[C@@H](C)CCC[C@H]([C@H]2OC[C@@H](N(C)C3CC3)CO2)[C@@H]2CC[C@H]2CN2C[C@@]3(CCCc4cc(Cl)ccc43)COc3ccc(cc32)C(=O)NS1(=O)=O` [Example 69, (1S,3′R,6′R,7′S,11′S,12′R)-6-chloro-7′-(cis-5-(cyclopropyl(methyl)amino)-1,3-dioxan-2-yl)-11′,12′-dimethyl-3,4-dihydro-2H,15′H-spiro[naphthalene-1,22′-[20]oxa[13]thia[1,14]diazatetracyclo [14.7.2.0~3,6~.0~19,24~]pentacosa[16,18,24]trien]-15′-one 13′,13′-dioxide], for which the IC50 worked out at 0.535 nM on Mcl-1/Bim interaction and 415 nM with OPM-2 (16 h).

For `C[C@@H]1[C@@H](C)CCC[C@H]([C@H]2OC[C@@H](N(C)C3CC3)CO2)[C@@H]2CC[C@H]2CN2C[C@@]3(CCCc4cc(Cl)ccc43)COc3ccc(cc32)C(=O)NS1(=O)=O` [Example 70, (1S,3′R,6′R,7′S,11′S,12′R)-6-chloro-7′-(cis-5-(cyclopropyl(methyl)amino)-1,3-dioxan-2-yl)-11′,12′-dimethyl-3,4-dihydro-2H,15′H-spiro[naphthalene-1,22′-[20]oxa[13]thia[1,14]diazatetracyclo [14.7.2.0~3,6~.0~19,24~]pentacosa[16,18,24]trien]-15′-one 13′,13′-dioxide], the IC50 on Mcl-1/Bim interaction is 1.31 nM; in the experiment on OPM-2 (16 h) it was 1580 nM.

For `COCCN(C)[C@H]1CO[C@@H]([C@H]2CCC[C@H](C)[C@@H](C)S(=O)(=O)NC(=O)c3ccc4c(c3)N(C[C@@H]3CC[C@H]32)C[C@@]2(CCCc3cc(Cl)ccc32)CO4)OC1` [Example 71, (1S,3′R,6′R,7′S,11′S,12′R)-6-chloro-7′-(cis-5-((2-methoxyethyl)(methyl)amino)-1,3-dioxan-2-yl)-11′,12′-dimethyl-3,4-dihydro-2H,15′H-spiro[naphthalene-1,22′-[20]oxa[13]thia[1,14]diazatetracyclo [14.7.2.0~3,6~.0~19,24~]pentacosa[16,18,24]trien]-15′-one 13′,13′-dioxide], the IC50 at Mcl-1/Bim interaction came to 0.217 nM; in the experiment on OPM-2 (16 h), 90 nM.

With `COCCN(C)[C@H]1CO[C@@H]([C@H]2CCC[C@H](C)[C@@H](C)S(=O)(=O)NC(=O)c3ccc4c(c3)N(C[C@@H]3CC[C@H]32)C[C@@]2(CCCc3cc(Cl)ccc32)CO4)OC1` [Example 72, (1S,3′R,6′R,7′S,11′S,12′R)-6-chloro-7′-(cis-5-((2-methoxyethyl)(methyl)amino)-1,3-dioxan-2-yl)-11′,12′-dimethyl-3,4-dihydro-2H,15′H-spiro[naphthalene-1,22′-[20]oxa[13]thia[1,14]diazatetracyclo [14.7.2.0~3,6~.0~19,24~]pentacosa[16,18,24]trien]-15′-one 13′,13′-dioxide], the 50% inhibitory concentration (IC50) was 0.568 nM on Mcl-1/Bim interaction and 341 nM with OPM-2 (16 h).

For `C[C@@H]1CC[C@H]([C@H]2OC[C@@H](N(C)C)CO2)[C@@H]2CC[C@H]2CN2C[C@@]3(CCCc4cc(Cl)ccc43)COc3ccc(cc32)C(=O)NS(=O)(=O)C[C@@H]1C` [Example 75, (1S,3′R,6′R,7′S,10′R,11′R)-6-chloro-7′-(cis-5-(dimethylamino)-1,3-dioxan-2-yl)-10′,11′-dimethyl-3,4-dihydro-2H,15′H-spiro[naphthalene-1,22′-[20]oxa[13]thia[1,14]diazatetracyclo [14.7.2.0~3,6~.0~19,24~]pentacosa[16,18,24]trien]-15′-one 13′,13′-dioxide], the IC50 at Mcl-1/Bim interaction was determined as 13 nM; with OPM-2 (16 h), 6770 nM.

As to `C[C@@H]1CC[C@H]([C@H]2OC[C@@H](N(C)C)CO2)[C@@H]2CC[C@H]2CN2C[C@@]3(CCCc4cc(Cl)ccc43)COc3ccc(cc32)C(=O)NS(=O)(=O)C[C@@H]1C` [Example 76, (1S,3′R,6′R,7′S,10′R,11′R)-6-chloro-7′-(cis-5-(dimethylamino)-1,3-dioxan-2-yl)-10′,11′-dimethyl-3,4-dihydro-2H,15′H-spiro[naphthalene-1,22′-[20]oxa[13]thia[1,14]diazatetracyclo [14.7.2.0~3,6~.0~19,24~]pentacosa[16,18,24]trien]-15′-one 13′,13′-dioxide], the IC50 came out at 6.24 nM at Mcl-1/Bim interaction and 2480 nM in the experiment with OPM-2 (16 h).
